Tests used:
tumor S-180 = test: Stained dead tumor cells in peritoneal fluid of tumor-bearing mice (CUR); assay type: in vivo; details: 12th day of tumor S-180 inoculation
Excerpt: The acceptable criterion for determining the anti-tumor efficacy of the free CUR and PK-CUR-NP are the determination of the life span prolongation.
The number of dead cells in the peritoneal fluid of mice treated with PK-CUR-NP increased life span when compared to free CUR.

P388 leukemia cells = test: Anti-leukemia activity against P388 lymphocytic leukemia in mice (survival); assay type: in vivo; details: Example 54; i.p. once a day; dose 1, 10, 20 mg/kg/day, group not stated
Method: Animals: Adult DBA/2J male mice, 6 to 8 weeks old. All animals weighed approximately 25 g when used in experiments. Mice were assigned randomly to treatment and control groups. Each member of which received identical dosed (i.p.) of PK or 0.9% NaCl solution for all injections. Volumes were 0.01 ml/g body weight.
Tumor: L1210 or P388 leukemia cells induced in mice by inoculation with L1210 or P388 leukemia cells (1.0×10^5).
The leukemia cells were passed i.p. weekly. L1210 or P388 cells were cultured at 37° C. in RPMI-1640 medium (GIBCO) without antibiotics and supplemented with 10% fetal calf serum.
After the tumor implantation (1×10^5 leukemia cells), PK was injected intraperitoneally once a day. The treatment was started between the end of 2nd and 6th day after inoculation. Dose of PK was 25 mg/kg/day for PK groups. Control mice were treated with same value of 0-9% NaCl. Anti-leukemia activity was expressed as T/C %. T is median survival days of treated group and C is that of control group. A T/C value was greater that 100% means the treated mice is surviving longer than the control mice. […] The statistical significance of data was determined by student's test. […]
After the tumor implantation (1×10^5 leukemia cells), PK-HHT-SSL was injected intraperitoneally once a day. […] Anti-leukemia activity was expressed as T/C %. […] The statistical significance of data was determined by student's test.

[1] = test system: malignant melanocarcinoma B16; test: Inhibition of tumor cell proliferation, B16; assay type: cell-based, human; details: Mus musculus; 1 μg/ml, 72 hours
Method: (§1) Human tumor cell lines: Hela leukemia HL-60, malignant melanocarcinoma B16, oral epidermoid carcinoma (KB), lung carcinoma (A549), breast carcinoma MCF-7, adenocarcinoma of stomach.
(§2) Animal tumor cell lines: Walker carcinoma, LLC-WRC-256, malignant melanoma (RMMI 1846), 3T3, and S-180 sarcoma (CCRF-180). All lines were routinely cultured in the RPMI1640 medium supplemented 20% fetal calf serum. The experiment was carried out in 96 microplate, each well had 5×10^5 cells and given desired concentration of 1 μg/ml (1×10^−6 g/ml) drug. Then the plate was incubated at 37° C. in an atmosphere of humidified air enriched with 5 percent carbon dioxide for 72 hours.
(§3) Inhibition percent rate of tumor cell proliferation was obtained according to the bellow formula. [formula]

breast carcinoma MCF-7 = test: Inhibition of tumor cell proliferation, MCF-7; assay type: cell-based; details: Homo sapiens, MCF7; 1 μg/ml, 72 hours
Method: as §1, §2, §3

L-120 leukemia = test: Survival of mice bearing leukemia (free HHT vs PK-HHT-NP); assay type: in vivo
Excerpt: Methods: L-120 leukemia mice, weight 20-22 g were used in the experiment. […] The dose of PK-HHT-NP is equivalent of free HHT. (All the following comparing experiments are used same methods).

[2] = Pharmacokinetic study: tissue AUC; assay type: in vivo, mice; details: 0.5 mg HHT/kg via the tail
Method: Present example described Pharmacokinetic studied of NP. Free HHT and PK-HHT-NP were given to mice via the tail at dose of 0.5 mg HHT/kg. Other methods are as same as method of Example 22.

| SMILES | Number of stained dead tumor cells (1 × 10^6 cells mL^−1) (tumor S-180) | Survival time (P388 leukemia cells) | inhibition at 1 µg/mL [1] | inhibition at 1 µg/mL (breast carcinoma MCF-7) | Survival time T/L days (L-120 leukemia; Dose 1 mg/kg) | T/C (%) (L-120 leukemia; Dose 1 mg/kg) | Survival time T/L days (L-120 leukemia; Dose 5 mg/kg) | T/C (%) (L-120 leukemia; Dose 5 mg/kg) | Tissue AUC, Blood [2] | Tissue AUC, Cancer [2] | Tissue AUC, Heart [2] | Tissue AUC, Kidney [2] | Tissue AUC, Liver [2] | Tissue AUC, Lung [2] | Tissue AUC, Spleen [2] |
| --- | --- | --- | --- | --- | --- | --- | --- | --- | --- | --- | --- | --- | --- | --- | --- |
| C=C1C[C@@]2(O)O[C@@]3(C[C@H]2C(C)C)[C@@H](C)CC[C@@H]13 [CUR, Curcumol] | 5.36 ± 0.95 1 × 10^6 cells mL^−1 | – | – | – | – | – | – | – | – | – | – | – | – | – | – |
| COC(=O)C[C@](O)(CCCC(C)(C)O)C(=O)O[C@@H]1C(OC)=C[C@]23CCCN2CCc2cc4c(cc2[C@H]13)OCO4 [HHT, Homoharringtonine] | – | 19.8 ± 4.2 days | 73.8 ± 8.1% | 78.5 ± 7.9% | 5/9 | 55.6% | 27/9 | 300% | 3.0 µg·h/g | 12.0 µg·h/g | 89.2 µg·h/g | 243.2 µg·h/g | 168.8 µg·h/g | 138.9 µg·h/g | 192.8 µg·h/g |
